Patent publication US9278936B2, “Crystalline forms of 1-(3-tert-butyl-1-p-tolyl-1H-pyrazol-5-yl)-3-(5-fluoro-2-(1-(2-hydroxyethyl)-1H-indazol-5-yloxy)benzyl)urea hydrochloride” (Array BioPharma Inc., priority 2012, dated 2016)

Tests used:
p38 MAPK = settings: cited from earlier work
[1] = Pharmacokinetics, relative bioavailability and food effect in healthy subjects following single oral doses; type: in vivo, human; settings: by 48 hours after dosing
Source text: Formulations 1 and 2 as well as the control are summarized below.
This study design encompassed 3 parallel treatment cohorts of unique subjects evaluating the two formulations (12 subjects per cohort) and the PIC control (6 subjects) in a fasted or fed state, as shown in Table 12. A crossover food-effect assessment for the two formulations occurred with Groups 1 and 2 within Periods 1 and 2.
For each period, subjects were divided into 2 groups of equal size to evaluate any potential period effects on the food-effect assessment. Subjects fasted for a minimum of 8 hours the night before and 4 hours following dosing for the fasted assessment. Subjects consumed a slightly modified standard high-fat meal 30 minutes before and fasted for 4 hours after dosing for the fed portion of the food-effect assessment. Following a 7-day washout after the initial dose, subjects being dosed with the novel formulations returned to the clinic for the Period 2 single dose in the fasted state or following the consumption of a high-fat meal, as appropriate. Within each cohort and period, all subjects were treated on the same day. The same subjects were utilized for Cohort 1—Periods 1 and 2, and likewise for Cohort 2—Periods 1 and 2.
Both days were considered single dose for analysis purposes. Pharmacokinetic parameters calculated included the following: […]

[2] = Aqueous solubility / BCS class; type: physicochemical
Tie2 protein kinase = Tie2 protein kinase (Homo sapiens, UniProt Q02763); settings: cited from earlier work
Tie2 protein kinase, sequence (Q02763 23-1124): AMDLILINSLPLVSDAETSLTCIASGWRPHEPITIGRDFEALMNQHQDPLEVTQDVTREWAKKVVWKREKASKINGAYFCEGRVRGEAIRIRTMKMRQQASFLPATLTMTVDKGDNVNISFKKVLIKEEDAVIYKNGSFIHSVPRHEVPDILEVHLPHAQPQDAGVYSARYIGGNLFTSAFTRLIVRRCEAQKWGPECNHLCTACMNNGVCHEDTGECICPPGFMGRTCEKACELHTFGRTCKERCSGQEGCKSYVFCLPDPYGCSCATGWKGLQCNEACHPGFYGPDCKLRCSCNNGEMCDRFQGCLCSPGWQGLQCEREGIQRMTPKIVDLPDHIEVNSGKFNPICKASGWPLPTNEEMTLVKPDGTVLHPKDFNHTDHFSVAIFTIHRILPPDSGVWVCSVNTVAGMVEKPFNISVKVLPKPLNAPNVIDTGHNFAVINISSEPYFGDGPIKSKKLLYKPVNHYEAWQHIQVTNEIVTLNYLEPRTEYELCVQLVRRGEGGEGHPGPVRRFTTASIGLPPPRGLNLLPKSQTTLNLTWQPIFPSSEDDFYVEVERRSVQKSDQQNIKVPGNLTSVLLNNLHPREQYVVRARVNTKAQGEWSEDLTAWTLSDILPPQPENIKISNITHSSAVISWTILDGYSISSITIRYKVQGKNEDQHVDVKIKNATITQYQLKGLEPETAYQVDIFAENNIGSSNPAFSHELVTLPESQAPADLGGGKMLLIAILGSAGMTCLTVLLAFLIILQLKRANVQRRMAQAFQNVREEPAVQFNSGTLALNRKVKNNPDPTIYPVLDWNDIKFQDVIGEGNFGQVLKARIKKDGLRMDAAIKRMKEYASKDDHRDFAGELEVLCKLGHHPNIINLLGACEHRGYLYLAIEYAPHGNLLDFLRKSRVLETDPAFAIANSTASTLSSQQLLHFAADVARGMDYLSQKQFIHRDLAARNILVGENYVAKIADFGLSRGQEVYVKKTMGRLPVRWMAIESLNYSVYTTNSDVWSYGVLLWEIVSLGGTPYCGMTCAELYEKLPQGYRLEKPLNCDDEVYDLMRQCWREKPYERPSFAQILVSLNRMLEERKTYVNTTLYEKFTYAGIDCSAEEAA

Cc1ccc(-n2nc(C(C)(C)C)cc2NC(=O)NCc2cc(F)ccc2Oc2ccc3c(cnn3CCO)c2)cc1 [ARRY-614, 1-(3-Tert-butyl-1-p-tolyl-1H-pyrazol-5-yl)-3-(5-fluoro-2-(1-(2-hydroxyethyl)-1H-indazol-5-yloxy)benzyl)urea]
inhibitory activity against p38 MAPK (p38 MAPK): potent inhibitory activity | mean plasma concentrations relative to the mean peak plasma concentrations [1]: less than 10% | BCS class [2]: Class II | solubility ([2]; aqueous media, aqueous buffer, across the typical physiological pH range of 2-8): < 10 µg/mL | inhibitory activity against Tie2 protein kinase (Tie2 protein kinase): potent inhibitory activity
